Experimental data reported in US8785638B2, “Thieno [2, 3-B] pyridine derivatives as viral replication inhibitors” (Katholieke Universiteit Leuven, priority 2009, dated 2014).
Where two headings read alike, the source gives them in different places.

How the values were obtained:
[1] = target: LEDGF/p75-HIV-1 integrase interaction (Human immunodeficiency virus type 1 group M subtype B (isolate HXB2) (HIV-1), UniProt P04585); assay: AlphaScreen assay of LEDGF-integrase interaction inhibition; type: binding
Method in brief: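 Compounds (0.1 up to 100 μM) pre-incubated 30 min at 4° C. with 300 nM His6-integrase in pH 7.4 Tris buffer, then 100 nM flag-LEDGF/p75 added for 1 h at 4° C. Ni-chelate acceptor and anti-flag donor beads (20 μg/ml each) were incubated 1 h at 30° C. before reading AlphaScreen emission.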

[2] = system: HIV-1 (IIIB), HIV-1 (NL4.3); assay: microbe, parasite or virus in culture; type: cell-based; conditions: for EC50: Human immunodeficiency virus 1, IIIB, MT4, MT-4 cells, 50% protection against HIV-induced cytopathogenic effect, MTT; for SI: selectivity index, ratio of CC50 to EC50
Method in brief: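 MT-4 cells infected with HIV-1 IIIB or NL4.3; protection from virus-induced cytopathic effect measured by MTT reduction, OD 540 nm. EC50 is the dose giving 50% protection; CC50 is the concentration cutting mock-infected absorbance by 50%; SI = CC50/EC50.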

[3] = Cytotoxicity in mock-infected MT-4 cells (MTT); type: cell-based; conditions: human, 50% cytotoxic concentration
Method in brief: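 MT-4 cells (HTLV-1-transformed T4 line) in RPMI 1640 with 10% FCS, mock-infected alongside HIV-infected cultures. Viability read by in situ MTT reduction, OD 540 nm. CC50 is the compound concentration cutting mock-infected control absorbance by 50%.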

Compound	IC50 ([1]; His6-tagged integrase 300 nM, flag-LEDGF/p75 100 nM, read-out: Alphascreen IC50) [nM]	EC50 [2] [nM]	SI [2]	CC50 [3] [nM]	IC50 [1] [nM]
Cc1nc2sc3c(c2c(-c2ccc4ncsc4c2)c1C(OC(C)(C)C)C(=O)O)CCCC3 (centres unmarked) [Cpd 186, 2-[2-methyl-4-(benzo[d]thiazol-6-yl)-5,6,7,8-tetrahydro[1]benzothieno[2,3-b]pyridin-3-yl]-2-tert-butoxyacetic acid]	430	38	2900	110000	
Cc1nc2sc3c(c2c(-c2ccc4c5c(ccnc25)CCO4)c1C(OC(C)(C)C)C(=O)O)CCCC3 (centres unmarked) [Cpd 190]		15	8401	129000	370
